This note sets out measurements from ChEMBL document CHEMBL2074347, “Circumvention of tumor multidrug resistance by a new annonaceous acetogenin: atemoyacin-B” (Acta Pharmacol Sin, 1999).

SMILES strings stand for the structures.

For data set [1], the target named is T1, ATP-dependent translocase ABCB1 (Homo sapiens, UniProt P08183). Put plainly: TP_TRANSPORTER: increase in Fura-2 intracellular accumulation (Fura-2: ? uM, Ateomyacin-B: 168 uM) in MCF-7/Dox cells. The format is functional, cell-based.
T1 sequence (P08183 whole entry): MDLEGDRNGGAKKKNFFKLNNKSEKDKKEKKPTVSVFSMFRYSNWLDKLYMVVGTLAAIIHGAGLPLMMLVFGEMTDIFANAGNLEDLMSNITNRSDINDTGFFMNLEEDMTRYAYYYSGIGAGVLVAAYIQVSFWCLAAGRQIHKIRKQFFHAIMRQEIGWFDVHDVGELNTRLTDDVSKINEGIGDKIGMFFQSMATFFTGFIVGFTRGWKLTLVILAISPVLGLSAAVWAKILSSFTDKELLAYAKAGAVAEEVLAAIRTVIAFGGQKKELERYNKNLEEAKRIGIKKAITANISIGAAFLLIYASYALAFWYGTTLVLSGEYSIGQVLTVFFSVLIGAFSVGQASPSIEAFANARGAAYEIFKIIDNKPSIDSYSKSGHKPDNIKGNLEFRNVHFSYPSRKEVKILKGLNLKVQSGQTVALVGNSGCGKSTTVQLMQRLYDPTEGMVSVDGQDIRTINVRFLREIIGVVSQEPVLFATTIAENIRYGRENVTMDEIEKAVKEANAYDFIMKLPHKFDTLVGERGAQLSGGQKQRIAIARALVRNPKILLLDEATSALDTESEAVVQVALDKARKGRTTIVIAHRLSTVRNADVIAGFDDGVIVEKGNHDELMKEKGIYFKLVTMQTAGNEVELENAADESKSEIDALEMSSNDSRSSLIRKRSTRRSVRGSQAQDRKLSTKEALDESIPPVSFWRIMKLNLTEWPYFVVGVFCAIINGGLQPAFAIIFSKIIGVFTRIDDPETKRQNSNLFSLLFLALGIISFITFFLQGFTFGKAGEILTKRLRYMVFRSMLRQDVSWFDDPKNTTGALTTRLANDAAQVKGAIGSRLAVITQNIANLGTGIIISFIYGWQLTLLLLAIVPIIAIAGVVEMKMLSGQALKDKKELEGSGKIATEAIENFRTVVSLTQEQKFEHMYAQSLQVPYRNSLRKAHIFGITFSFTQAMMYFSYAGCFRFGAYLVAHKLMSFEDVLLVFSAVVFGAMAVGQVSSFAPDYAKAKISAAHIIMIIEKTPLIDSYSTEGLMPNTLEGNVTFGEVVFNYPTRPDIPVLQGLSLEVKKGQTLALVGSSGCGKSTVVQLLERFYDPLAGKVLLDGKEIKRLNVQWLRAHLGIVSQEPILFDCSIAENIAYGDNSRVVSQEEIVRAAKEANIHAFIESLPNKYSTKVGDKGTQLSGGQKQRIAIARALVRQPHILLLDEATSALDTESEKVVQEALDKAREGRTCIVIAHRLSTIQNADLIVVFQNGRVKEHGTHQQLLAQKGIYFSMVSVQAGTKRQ
The target in data set [2] is T1, ATP-dependent translocase ABCB1. The data set is described as follows: TP_TRANSPORTER: increase in Doxorubicin intracellular accumulation (Doxorubicin: ? uM, Ateomyacin-B: 168 uM) in MCF-7/Dox cells. The format is functional, cell-based.

Take `CCCCCC(O)CCCCC(O)C1CCC(C2CCC(C(O)CCCCCCCCCCC3=CC(C)OC3=O)O2)O1` (configuration not stated) [Atemoyacin-B]: the Activity stood at 2.61 fold in data set [1] and 3.28 fold in data set [2].
